{"source": "ChEMBL document CHEMBL1135648", "about": "“Synthesis and evaluation of no-carrier-added 8-cyclopentyl-3-(3-[(18)F]fluoropropyl)-1-propylxanthine ([(18)F]CPFPX): a potent and selective A(1)-adenosine receptor antagonist for in vivo imaging” (J Med Chem, 2002)", "key": {"[1]": {"tested_on": "Mus musculus", "test": "In vivo biodistribution in NMRI (Naval Medical Research Institute) mice kidney at the dose of 0.15-0.2 nmol at 2 min", "format": "ADME, organism-based"}, "[2]": {"tested_on": "Mus musculus", "test": "In vivo biodistribution in NMRI (Naval Medical Research Institute) mice heart at the dose of 0.15-0.2 nmol at 40 min", "format": "ADME, organism-based"}, "[3]": {"tested_on": "Mus musculus", "test": "In vivo biodistribution in NMRI (Naval Medical Research Institute) mice pnacreas at the dose of 0.15-0.2 nmol at 20 min", "format": "ADME, organism-based"}, "[4]": {"tested_on": "Mus musculus", "test": "In vivo biodistribution in NMRI (Naval Medical Research Institute) mice blood at the dose of 0.15-0.2 n mol at 2 min", "format": "ADME, organism-based"}, "[5]": {"tested_on": "Mus musculus", "test": "In vivo biodistribution in NMRI (Naval Medical Research Institute) mice liver at the dose of 0.15-0.2 nmol at 5 min", "format": "ADME, organism-based"}, "[6]": {"tested_on": "Mus musculus", "test": "In vivo biodistribution in NMRI (Naval Medical Research Institute) mice heart at the dose of 0.15-0.2 nmol at 2 min", "format": "ADME, organism-based"}, "[7]": {"tested_on": "Mus musculus", "test": "In vivo biodistribution in NMRI (Naval Medical Research Institute) mice lung at the dose of 0.15-0.2 nmol at 2 min", "format": "ADME, organism-based"}, "[8]": {"tested_on": "Mus musculus", "test": "In vivo biodistribution in NMRI (Naval Medical Research Institute) mice brain at the dose of 0.15-0.2 nmol at 40 min", "format": "ADME, organism-based"}, "[9]": {"tested_on": "Mus musculus", "test": "In vivo biodistribution in NMRI (Naval Medical Research Institute) mice heart at the dose of 0.15-0.2 nmol at 60 min", "format": "ADME, organism-based", "conditions": "1 h"}, "[10]": {"tested_on": "Mus musculus", "test": "In vivo biodistribution in NMRI (Naval Medical Research Institute) mice pancreas at the dose of 0.15-0.2 nmol at 5 min", "format": "ADME, organism-based"}, "[11]": {"molecular_target": "T1, Adenosine receptor A1 (Homo sapiens, UniProt P30542)", "T1 sequence (P30542 whole entry)": "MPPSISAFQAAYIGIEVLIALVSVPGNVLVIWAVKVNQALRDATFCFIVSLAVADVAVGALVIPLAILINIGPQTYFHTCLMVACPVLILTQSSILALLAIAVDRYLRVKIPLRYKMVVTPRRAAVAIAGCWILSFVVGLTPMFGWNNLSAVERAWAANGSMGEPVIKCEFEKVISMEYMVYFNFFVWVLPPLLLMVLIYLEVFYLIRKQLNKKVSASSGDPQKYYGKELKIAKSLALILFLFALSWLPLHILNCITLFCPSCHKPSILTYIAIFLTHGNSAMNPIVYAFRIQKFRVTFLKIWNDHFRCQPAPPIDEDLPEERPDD", "test": "In vitro binding affinity for human Adenosine A1 receptor expressed in CHO-K1 cells", "format": "cell-based"}, "[12]": {"tested_on": "Mus musculus", "test": "In vivo biodistribution in NMRI (Naval Medical Research Institute) mice kidney at the dose of 0.15-0.2 nmol at 10 min", "format": "ADME, organism-based"}, "[13]": {"tested_on": "Mus musculus", "test": "In vivo biodistribution in NMRI (Naval Medical Research Institute) mice pancreas at the dose of 0.15-0.2 nmol at 40 min", "format": "ADME, organism-based"}, "[14]": {"tested_on": "Mus musculus", "test": "In vivo biodistribution in NMRI (Naval Medical Research Institute) mice kidney at the dose of 0.15-0.2 nmol at 40 min", "format": "ADME, organism-based"}, "[15]": {"tested_on": "Mus musculus", "test": "In vivo biodistribution in NMRI (Naval Medical Research Institute) mice bone at the dose of 0.15-0.2 nmol at 60 min", "format": "ADME, organism-based, Bone element", "conditions": "1 h"}, "[16]": {"tested_on": "Mus musculus", "test": "In vivo biodistribution in NMRI (Naval Medical Research Institute) mice brain at the dose of 0.15-0.2 nmol at 10 min", "format": "ADME, organism-based"}, "[17]": {"test": "Ultrafiltration in human plasma", "format": "functional"}, "[18]": {"tested_on": "Mus musculus", "test": "In vivo biodistribution in NMRI (Naval Medical Research Institute) mice blood at the dose of 0.15-0.2 nmol at 5 min", "format": "ADME, organism-based"}, "[19]": {"tested_on": "Mus musculus", "test": "In vivo biodistribution in NMRI (Naval Medical Research Institute) mice brain at the dose of 0.15-0.2 nmol at 2 min", "format": "ADME, organism-based"}, "[20]": {"tested_on": "Mus musculus", "test": "In vivo biodistribution in NMRI (Naval Medical Research Institute) mice heart at the dose of 0.15-0.2 nmol at 20 min", "format": "ADME, organism-based"}, "[21]": {"molecular_target": "T2, Adenosine receptor A1 (Rattus norvegicus, UniProt P25099)", "T2 sequence (P25099 whole entry)": "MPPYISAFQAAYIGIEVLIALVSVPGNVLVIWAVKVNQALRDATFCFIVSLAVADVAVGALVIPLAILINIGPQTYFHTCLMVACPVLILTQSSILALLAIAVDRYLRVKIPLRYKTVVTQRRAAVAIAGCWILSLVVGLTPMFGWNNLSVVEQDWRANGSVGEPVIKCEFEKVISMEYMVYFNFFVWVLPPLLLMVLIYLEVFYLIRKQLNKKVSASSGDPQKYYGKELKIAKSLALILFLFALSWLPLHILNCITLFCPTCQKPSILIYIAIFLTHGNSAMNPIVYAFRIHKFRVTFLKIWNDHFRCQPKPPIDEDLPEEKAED", "test": "In vitro binding affinity at rat Adenosine A1 receptor"}, "[22]": {"tested_on": "Mus musculus", "test": "In vivo biodistribution in NMRI (Naval Medical Research Institute) mice lung at the dose of 0.15-0.2 nmol at 40 min", "format": "ADME, organism-based"}, "[23]": {"tested_on": "Mus musculus", "test": "In vivo biodistribution in NMRI (Naval Medical Research Institute) mice intestine at the dose of 0.15-0.2 nmol at 60 min", "format": "ADME, organism-based", "conditions": "1 h"}, "[24]": {"tested_on": "Mus musculus", "test": "In vivo biodistribution in NMRI (Naval Medical Research Institute) mice blood at the dose of 0.15-0.2 nmol at 60 min", "format": "ADME, organism-based", "conditions": "1 h"}, "[25]": {"tested_on": "Mus musculus", "test": "In vivo biodistribution in NMRI (Naval Medical Research Institute) mice lung at the dose of 0.15-0.2 nmol at 5 min", "format": "ADME, organism-based"}, "[26]": {"tested_on": "Mus musculus", "test": "In vivo biodistribution in NMRI (Naval Medical Research Institute) mice bone at the dose of 0.15-0.2 nmol at 20 min", "format": "ADME, organism-based, Bone element"}, "[27]": {"tested_on": "Mus musculus", "test": "In vivo biodistribution in NMRI (Naval Medical Research Institute) mice blood at the dose of 0.15-0.2 nmol at 20 min", "format": "ADME, organism-based"}, "[28]": {"tested_on": "Mus musculus", "test": "In vivo biodistribution in NMRI (Naval Medical Research Institute) mice pancreas at the dose of 0.15-0.2 nmol at 60 min", "format": "ADME, organism-based", "conditions": "1 h"}, "[29]": {"tested_on": "Mus musculus", "test": "In vivo biodistribution in NMRI (Naval Medical Research Institute) mice heart at the dose of 0.15-0.2 nmol at 5 min", "format": "ADME, organism-based"}, "[30]": {"tested_on": "Mus musculus", "test": "In vivo biodistribution in NMRI (Naval Medical Research Institute) mice lung at the dose of 0.15-0.2 nmol at 60 min", "format": "ADME, organism-based", "conditions": "1 h"}, "[31]": {"tested_on": "Mus musculus", "test": "In vivo biodistribution in NMRI (Naval Medical Research Institute) mice pancreas at the dose of 0.15-0.2 nmol at 10 min", "format": "ADME, organism-based"}, "[32]": {"tested_on": "Mus musculus", "test": "In vivo biodistribution in NMRI (Naval Medical Research Institute) mice spleen at the dose of 0.15-0.2 nmol at 20 min", "format": "ADME, organism-based"}}}
{"smiles": "CCCn1c(=O)c2nc(C3CCCC3)[nH]c2n(CCC[18F])c1=O", "values": [{"measurement": "ID/g", "setting": "[1]", "result": 4.68, "unit": "%"}, {"measurement": "ID/g", "setting": "[2]", "result": 4.23, "unit": "%"}, {"measurement": "ID/g", "setting": "[3]", "result": 4.58, "unit": "%"}, {"measurement": "ID/g", "setting": "[4]", "result": 11.2, "unit": "%"}, {"measurement": "ID/g", "setting": "[5]", "result": 7.44, "unit": "%"}, {"measurement": "ID/g", "setting": "[6]", "result": 4.64, "unit": "%"}, {"measurement": "ID/g", "setting": "[7]", "result": 5.35, "unit": "%"}, {"measurement": "ID/g", "setting": "[8]", "result": 2.52, "unit": "%"}, {"measurement": "ID/g", "setting": "[9]", "result": 1.63, "unit": "%"}, {"measurement": "ID/g", "setting": "[10]", "result": 3.35, "unit": "%"}, {"measurement": "Kd", "setting": "[11]", "result": 1.26, "unit": "nM"}, {"measurement": "ID/g", "setting": "[12]", "result": 6.1, "unit": "%"}, {"measurement": "ID/g", "setting": "[13]", "result": 3.22, "unit": "%"}, {"measurement": "ID/g", "setting": "[14]", "result": 5.95, "unit": "%"}, {"measurement": "ID/g", "setting": "[15]", "result": 2.27, "unit": "%"}, {"measurement": "ID/g", "setting": "[16]", "result": 2.44, "unit": "%"}, {"measurement": "Ultrafiltration", "setting": "[17]", "result": 86}, {"measurement": "ID/g", "setting": "[18]", "result": 6.53, "unit": "%"}, {"measurement": "ID/g", "setting": "[19]", "result": 2.45, "unit": "%"}, {"measurement": "ID/g", "setting": "[20]", "result": 4.11, "unit": "%"}, {"measurement": "Kd", "setting": "[21]", "result": 0.63, "unit": "nM"}, {"measurement": "ID/g", "setting": "[22]", "result": 5.7, "unit": "%"}, {"measurement": "ID/g", "setting": "[23]", "result": 9.13, "unit": "%"}, {"measurement": "ID/g", "setting": "[24]", "result": 1.55, "unit": "%"}, {"measurement": "ID/g", "setting": "[25]", "result": 4.22, "unit": "%"}, {"measurement": "ID/g", "setting": "[26]", "result": 2.02, "unit": "%"}, {"measurement": "ID/g", "setting": "[27]", "result": 4.13, "unit": "%"}, {"measurement": "ID/g", "setting": "[28]", "result": 1.03, "unit": "%"}, {"measurement": "ID/g", "setting": "[29]", "result": 3.71, "unit": "%"}, {"measurement": "ID/g", "setting": "[30]", "result": 2.43, "unit": "%"}, {"measurement": "ID/g", "setting": "[31]", "result": 4.29, "unit": "%"}, {"measurement": "ID/g", "setting": "[32]", "result": 1.78, "unit": "%"}]}
